Measured values taken from the NIST ThermoML archive (doi:10.1021/je400491p).
Numbers after ± are expanded uncertainties.

Conditions: 101.33 kPa, Liquid; for viscosity: Capillary tube (Ostwald / Ubbelohde) method; for mass density: Pycnometric method

Q: Which viscosity (313.15 K) does the source give for `OCCO` [1,2-ethanediol] here?
A: Its viscosity is 9.309 ± 0.11 mPa·s.

Q: What about the mass density (313.15 K) of the same compound?
A: Its mass density is 1098.9 ± 1.3 kg/m3.

Q: What about the viscosity (323.15 K) of the same compound?
A: The viscosity was 6.818 ± 0.079 mPa·s.

Q: What about the mass density (323.15 K) of the same compound?
A: The mass density was 1091.7 ± 1.3 kg/m3.

Q: And the viscosity (333.15 K)?
A: The viscosity was 5.027 ± 0.059 mPa·s.

Q: What about the mass density (333.15 K) of the same compound?
A: Its mass density is 1084.2 ± 1.3 kg/m3.

Q: And the viscosity (343.15 K)?
A: Its viscosity is 3.915 ± 0.046 mPa·s.

Q: And the mass density (343.15 K)?
A: Its mass density is 1078.1 ± 1.3 kg/m3.
